Source: US12226387B2, “Compounds for use in cancer cachexia” (priority 2018, dated 2025)
Like-named read-outs stand apart in the source and are kept apart here.

Legend:
C26 tumour-bearing mice [1] = test: Survival experiment in C26 tumour-bearing mice on ketone-ester diet; assay type: in vivo, Male Balb/c mice; conditions: ketone groups (KETrest+KETex) vs control groups, 4.5% ketone ester diet, p<0.01
Procedure: Animal housing and husbandry—Male Balb/c mice were obtained at 11 weeks of age and housed in polycarbonate cages on a 6:00 am to 6:00 pm light cycle under controlled room temperature (21-23° C.) and humidity (40-60%). Mice were individually housed to allow assessment of individual energy intake and physical activity parameters. Cages contained spruce particles (Lignocel® BK 8/15) bedding, and were changed every three weeks. Enrichment was provided by two cotton pellets, which were replaced during cage changing. Mice received one wooden stick to allow correct wearing off of their teeth while on the liquid diets. Solid food was provided in a recess of the metal wire lid at the top of the cage, whilst liquid diets were provided on a daily basis by means of feeding tubes (Bio-Serv™, catalog #14-726-518). Water was provided by a centralized system with a metal dispenser extending into the cage. All procedures were approved by the Animal Ethics Committee of KU Leuven, Belgium (P093/2017). […]
General study protocol and dietary interventions—Mice were individually housed and received ad libitum access to standard chow (Ssniff® R/M-H, Soest, Germany) prior to the start of the study. Food intake was registered and body weight was measured daily for 5 days to assess their normal rate of food intake. […]

C26 tumour-bearing mice [2] = test: Food intake and body weight of C26 tumour-bearing mice; assay type: in vivo, Male Balb/c mice; conditions: all experimental groups
Procedure: General study protocol and dietary interventions—Mice were individually housed and received ad libitum access to standard chow (Ssniff® R/M-H, Soest, Germany) prior to the start of the study. Food intake was registered and body weight was measured daily for 5 days to assess their normal rate of food intake. Following this baseline follow-up period, the mice were matched for body weight and food intake where after they were randomly assigned to five experimental groups: i) C26 tumour-bearing mice at rest on control diet (CONrest), ii) C26-bearing mice at rest on ketone diet (KETrest), iii) C26-bearing mice performing voluntary wheel running (WR) on control diet (CONex), iv) C26-bearing mice performing WR on ketone diet (KETex), and v) healthy mice at rest on control diet (WT). Mice were habituated to their experimental diet by a step-wise change of their food supply.
During the first three days, the mice received both their experimental liquid diet (without the addition of ketones) as well as standard chow. From day 3 to 6, mice received only their experimental liquid diets (i.e. 0% KET or CON diet). […]
Body weight, food intake and wheel running parameters—Body weight was measured every 3 days during the food training period. After tumour induction, body weight was measured at 4-day intervals. Food intake and wheel running parameters were measured daily.

[3] = Blood metabolite concentrations (βHB, glucose), 1-hr postprandial; assay type: in vivo, Male Balb/c mice; conditions: at all times
Procedure: Blood metabolite concentrations-Blood parameters were measured 1-hr postprandial, every 3 days during the food habituation period, and every 4 days from the day of tumour induction. Blood βHB and glucose levels were measured using the Glucomen Lx plus-meter (Menarini Diagnostics, Firenze, Italy) with Lx β-ketone or Lx glucose strips, respectively. The detection limits for p-hydroxybutyrate were 0.1 to 8.0 millimolar (mM). Blood lactate concentrations were assessed using the Lactate-[…] monitoring system (Arkray, Kyoto, Japan). Measurements were performed according to the manufacturer's instructions.

C26 tumour-bearing mice [4] = test: Voluntary wheel running activity; assay type: in vivo, Male Balb/c mice; conditions: KETex, wheel running on ketone ester diet, mean±SEM
Procedure: Tumour induction and exercise intervention—On day 12, tumour-xenografts were induced by interscapular injection of 5×10^5 murine colon carcinoma C26 cells dissolved in 100 μl of phosphate-buffered saline (PBS). C26 cell line was cultured in DMEM (Thermo Fisher Scientific, 41965-062) supplemented with 10% foetal bovine serum (FBS), 1% glutamine (Sigma G7513) and 1% penicillin and streptomycin. WT mice were injected with an identical volume of PBS. Twenty four hours before tumour inoculation, WR mice (CONex and KETex) received a running wheel to induce voluntary exercise, as previously reported in Coletti D et al;. Substrains of inbred mice differ in their physical activity as a behavior. Sci World J 2013: 1-7, 2013. Each wheel was supplied with a commercial cycling computer (2Cycle, 81488) to record physical activity parameters (i.e. running time, distance, and speed). Body weight, food intake and wheel running parameters—Body weight was measured every 3 days during the food training period. After tumour induction, body weight was measured at 4-day intervals. Food intake and wheel running parameters were measured daily. Statistical analysis—Data are presented as mean±SEM. […] Mice from the WT groups were not included in the 2-way ANOVA model, but were added as a reference. Differences in wheel running activity were assessed using an unpaired t-test. […]

[5] = tested on: murine colon carcinoma C26 cells; test: Tumour weights, C26 tumour-xenografts; assay type: in vivo, Male Balb/c mice; conditions: 16 days after C26 inoculation, KET mice, p<0.05 vs CON, mean±SEM
Procedure: Tumour induction and exercise intervention—On day 12, tumour-xenografts were induced by interscapular injection of 5×10^5 murine colon carcinoma C26 cells dissolved in 100 μl of phosphate-buffered saline (PBS). C26 cell line was cultured in DMEM (Thermo Fisher Scientific, 41965-062) supplemented with 10% foetal bovine serum (FBS), 1% glutamine (Sigma G7513) and 1% penicillin and streptomycin. WT mice were injected with an identical volume of PBS. Twenty four hours before tumour inoculation, WR mice (CONex and KETex) received a running wheel to induce voluntary exercise, as previously reported in Coletti D et al;. Substrains of inbred mice differ in their physical activity as a behavior. Sci World J 2013: 1-7, 2013. Each wheel was supplied with a commercial cycling computer (2Cycle, 81488) to record physical activity parameters (i.e. running time, distance, and speed). Behavioural testing and tissue collection experiment—In a second experiment, 9 mice were included in each experimental group and used for behavioural testing and tissue collection. Mice were euthanized 16 days following PBS or tumour cells inoculation. Twenty-four hours before sacrifice the running wheels were removed to eliminate potential acute effects of exercise on variables measured.

C26 tumour-bearing mice [6] = test: Muscle weights (TA, QUAD, GAS); assay type: in vivo, Male Balb/c mice
Excerpt: Behavioural testing and tissue collection experiment—In a second experiment, 9 mice were included in each experimental group and used for behavioural testing and tissue collection. Mice were euthanized 16 days following PBS or tumour cells inoculation. Twenty-four hours before sacrifice the running wheels were removed to eliminate potential acute effects of exercise on variables measured.

C26 tumour-bearing mice [7] = test: Grip strength of forelimbs and hindlimbs; assay type: in vivo, Male Balb/c mice; conditions: day 16, KETrest & KETex vs CONrest & CONex, p<0.05
Procedure: Grip strength—Grip strength of both the forelimbs and the hindlimbs was evaluated, at baseline (day 5) and every 4 days starting at tumour induction, by means of a bar and a grid respectively, connected to an isometric force transducer (BIO-GS3 Grip Strength Test, BIOSEB, Pinellas Park, Florida). Mice were lifted by their tail and positioned to grasp the metal bar or grid, and were pulled horizontally until they could no longer hold the grip. Maximal force (g) was registered during five attempts for both the forelimbs and the hindlimbs. Performance was calculated as the average of the three best attempts. Between attempts the mice were returned to their home cage and given a rest period of 3 min.

M. soleus = test: Ex-vivo muscle contractile properties of M. soleus; assay type: in vivo, Male Balb/c mice; conditions: on average, KETrest & KETex vs CONrest & CONex, p<0.05
Procedure: Muscle contractile properties—Ex-vivo muscle contractile properties were assessed as described by Derave W et al; Skeletal muscle properties in a transgenic mouse model for amyotrophic lateral sclerosis: Effects of creatine treatment. Neurobiol Dis 13: 264-272, 2003 and Eijnde B O et al; Effect of muscle creatine content manipulation on contractile properties in mouse muscles. Muscle and Nerve 29: 428-435, 2004.
Mice were anesthetized by an intraperitoneal injection of ketamine-xylazine (10 mg/kg). After dissection of M. soleus and M. extensor digitorum longus (EDL) of both hindlimbs, muscles were mounted vertically on a force transducer (HSE, March-Hugstetten, Germany) and incubated in organ baths containing Krebs-Henseleit solution (118 mM NaCl, 25 mM NaHCO3, 5 mM KCl, 1 mM MgSO4, 1 mM KH2PO4, 2.5 mM CaCl2 and […]). […] Following recovery, resting length (L0) was determined with a micropositioner and an oscilloscope by stimulating the soleus and EDL tetanically for 350 ms at 80 Hz and 120 Hz, respectively, interspersed with 2-min rest intervals. […] Average maximal tension and specific tension (force corrected for muscle cross-sectional area) were calculated for both the twitch and tetanic stimulations. Cross-sectional area was determined by dividing the wet muscle mass by the product of resting muscle length (L0) and the density of mammalian skeletal muscle (1.06 g/cm^3).

[8] = Blood (R)-3-hydroxybutyrate after oral administration of ester
[9] = tested on: pancreatic cancer cachexia; conditions: high amounts of ketone salts; cited from earlier work
[10] = in vivo

Compound: C[C@@H](O)CCOC(=O)C[C@@H](C)O [KET, (R)-3-hydroxybutyl-(R)-3-hydroxybutyrate]
- increase in mean survival time compared to control groups (C26 tumour-bearing mice [1]): +40%
- increase in median survival time compared to control groups (C26 tumour-bearing mice [1]): +17%
- Body weight over time (C26 tumour-bearing mice [2]): similarly decreased
- blood glucose levels compared with CON groups [3]: lower
- Av distance/day (C26 tumour-bearing mice [4]): 19.78 ± 1.36 km
- Av running speed (C26 tumour-bearing mice [4]): 2.94 ± 0.12 km/h
- tumour weights [5]: 204 ± 32 mg
- Tibialis anterior (TA) weight (C26 tumour-bearing mice [6]; KET, p<0.05 vs CON, mean±SEM): 41.6 ± 2.1 mg
- gastrocnemius (GAS) weights between the groups (C26 tumour-bearing mice [6]; mouse, in vivo): similar
- TA weight higher in KET compared with CON (C26 tumour-bearing mice [6]; on average): ~12%
- forelimb grip strength vs control groups (C26 tumour-bearing mice [7]): higher
- hindlimb grip strength vs control groups (C26 tumour-bearing mice [7]): higher
- Peak twitch force of M. soleus higher than in control groups (M. soleus): ~45%
- tetanic force of M. soleus higher than in control groups (M. soleus): ~29%
- level of uptake in the gut ([8]; consumption of a drink): surprisingly high
- circulating levels of (R)-3-hydroxybutyrate in the blood ([8]; in vivo): high
- period of raised (R)-3-hydroxybutyrate concentrations compared with ketone salts ([8]; in vivo): longer period

Compound: CC(=O)CC(=O)[O-].[Li+] [lithium acetoacetate]
- muscle and body weight loss [9]: inhibition
- tumour growth [9]: Reduced

Compound: CC(O)CC(=O)[O-].[Na+] (centres unmarked) [sodium hydroxybutyrate]
- muscle and body weight loss [9]: inhibition
- tumour growth [9]: Reduced

Compound: (R)-3-hydroxybutyrate-glycerol partial ester
- circulating levels of (R)-3-hydroxybutyrate in the blood [10]: high
- level of uptake in the gut [10]: surprisingly high
